Data set [1] deals with primary human hepatocytes or human iPSC-derived hepatocytes. Particulars: for underprediction of clearance by LAMPS compared to in vivo: Day 1 (24 hr) clearance vs in vivo intrinsic clearance.
The conditions of data set [2]: cited from earlier work; for estimated clearance: ref Kadam et al. 2013.
The test system of data set [3] is plasma protein. Particulars: cited from earlier work; for plasma free fraction, previously reported measurement: ref Sakolish et al. 2021; for Fub, plasma: representative range of literature-reported values, ref see Methods.
Data set [4] in a line: Literature-based in vivo clinical clearance, AUC and bioavailability. The settings on record: for bioavailability: in vivo; for mean oral clearance of available literature values: mean across studies, no further adjustment.
For data set [5], the system named is Hepatocyte. Particulars: metabolizing enzymes and conjugation pathways; cited from earlier work.
Data set [6] concerns primary human hepatocytes or human iPSC-derived hepatocytes. Particulars: as previously reported; ref Sakolish et al. 2021; cited from earlier work.
Data set [7] in a line: Plasma protein binding / plasma free fraction. The data set is classed as in vitro ADME. The settings on record: human.
Data set [8] has as its system microphysiological system. The settings on record: ref Marin et al. (2019); cited from earlier work.
Data set [9] concerns primary human hepatocytes or human iPSC-derived hepatocytes. As to the kind of experiment: Hepatic clearance in monolayer culture. Particulars: 2D culture; in most cases primary cells exhibited greater clearance. The data set is classed as in vitro ADME.

Values joined by “and” are separate entries in the source; they are usually repeats but may differ in a detail not shown here. Equal entries are not always repeated. Where two headings read alike, the source gives them in different places. A value given as a limit tells only on which side of the number the result lay.

We go through 8 compounds from publication PMC8585690 (Toxicology, 2021).

In the case of `Cn1c(=O)c2c(ncn2C)n(C)c1=O` [Caffeine], the “in vitro intrinsic clearance as a function of time” value in [1] (10-day experimental period, all four model systems (2D and 3D, primary and iPSC-derived hepatocytes)) was “decline in clearance was also observed”. For the same compound, in data set [1], the “underprediction of clearance by LAMPS compared to in vivo” value is on record as less than 5 fold. Also, the oral clearance in data set [2] (human, ref Lelo et al. 1986) is listed as 2.07 mL/min/kg. Besides, in data set [3] (equilibrium dialysis, ref Lelo et al. 1986), the plasma free fraction is listed as 0.68. In addition, in data set [3], the “plasma free fraction, previously reported measurement” value is 0.515. Moreover, in data set [3] (summary of Table 1 values), the “Plasma protein binding, % free” value is given as more than 50 % free. Moreover, the “oral clearance converted using 70 kg body weight” value in [4] (human, from ref Lelo et al. 1986) is 8.7 L/h. Further, the Hepatocyte metabolism result in data set [5] is given as “CYPA2, xanthine oxidase, or N-acetyltransferase 2”.
One may read the AUC as the area under the concentration-time curve, a measure of exposure. Turning to `CC(C)(C)c1ccc(C(O)CCCN2CCC(C(O)(c3ccccc3)c3ccccc3)CC2)cc1` (stereo not shown) [Terfenadine], the AUC in data set [2] (60 mg dose, ref Bergstrom et al. 1997) is 24.6 ng·h/mL; in [2] (120 mg dose, ref Stern et al. 1998) it was 20.14 ng·h/mL. Besides, the free fraction in [3] (by ultrafiltration, ref Awni et al. 1997) was 0.003; in [3] (source cited was a review, ref McTavish et al. 1990) it was 0.03. In addition, in [3], the “plasma free fraction, previously reported measurement” value is listed as 0.0219. In addition, the “Fub, plasma” value in data set [3] is listed as 0.003-0.022.
What is called bioavailability is dose-corrected exposure relative to a reference, in per cent. `N[C@@H]1[C@H]2CN(c3nc4c(cc3F)c(=O)c(C(=O)O)cn4-c3ccc(F)cc3F)C[C@@H]12` [Trovafloxacin]: the AUC in [2] (iv, 200 mg equivalent, ref Vincent et al. 1998) is 22000 ng·h/mL; in data set [2] (oral, 200 mg equivalent, ref Vincent et al. 1998) it was 32200 ng·h/mL. Moreover, the “toxicity indicated by lactate dehydrogenase (LDH) and TNF-alpha release” value in data set [6] is “most toxic”. In addition, in [3] (by equilibrium dialysis, ref Teng et al. 1995, Teng et al. 1996), the “free fraction in serum” value was 0.3 and 0.238. Moreover, the bioavailability in data set [4] (human, oral, 200 mg equivalent) is more than 100%. For the same compound, the Hepatocyte metabolism entry in [5] was “N-Acetylation, and conjugation with glucuronic acid”.
On to `CN(CCOc1ccc(CC2SC(=O)NC2=O)cc1)c1ccccn1` (stereo not shown) [Rosiglitazone], for which the oral clearance in data set [2] (human, ref Chapelsky et al. 2003) is 3.07 L/h. The AUC is 744 ng·h/mL in [2] (i.v. dose of 2 mg, ref Cox et al. 2000); 2,900 ng-hr/ml and 2,930 ng-hr/ml in [2] (oral dose of 8 mg, ref Cox et al. 2000). In addition, the “parent compound in feces” value in [2] (radioactivity detected in feces, ref Cox et al. 2000) is “no parent compound was detected”. Also, in data set [3] (by ultrafiltration, ref Chapelsky et al. 2003), the free fraction is reported as 0.0016. In addition, the “plasma free fraction, previously reported measurement” value in data set [3] is reported as 0.0038. In [3], the “Fub, plasma” value was 0.0016-0.036. The compound also yielded a bioavailability in [4] (human, oral, 8 mg) of 98%. For the same compound, the “mean oral clearance of available literature values” in data set [4] (human, oral) was found to be 2.85 L/h. Further, in [5], the Hepatocyte metabolism result is “CYP2C8, CYP2C9, N-demethylation, and conjugation with sulfate or glucuronic acid”.
By fraction unbound is commonly meant the share of the substance not bound to proteins or other matrix. `Cc1c(C)c2c(c(C)c1O)CCC(C)(COc1ccc(CC3SC(=O)NC3=O)cc1)O2` (stereo not shown) [Troglitazone]: in data set [2] (oral dose of 400 mg, ref Ott et al. 1998), the exposure (AUC) is 7300 ng·h/mL. Besides, the oral clearance in data set [2] (ref Loi et al. 1997) is 33.5 L/h; in data set [2] (three values, ref Loi et al. 1999) it was 30 L/h and 36.1 L/h and 29.8 L/h. The mean unbound fraction in data set [3] (by ultrafiltration, non-detects (one-third of subjects) not included, ref Ott et al. 1998) was 0.026. In addition, in data set [3], the “plasma free fraction, previously reported measurement” value is listed as 0.008. For the same compound, the “Fub, plasma” value in [3] is on record as 0.0009-0.017. Besides, the “oral clearance converted to” value in data set [4] (from ref Loi et al. 1997) was 33.5 L/h; in data set [4] (from ref Loi et al. 1999), 29.8 L/h and 30 L/h and 36 L/h. For the same compound, the “mean oral clearance of available literature values” in data set [4] (human, oral) amounted to 36.8 L/h. Further, the Hepatocyte metabolism result in [5] is “CYP3A4, and conjugation with sulfate or glucuronic acid”. For the same compound, the fraction unbound in data set [7] turned out to be 0.017.
Take `CCc1ccc(CCOc2ccc(CC3SC(=O)NC3=O)cc2)nc1` (stereo not shown) [Pioglitazone]: in [1], the “underprediction of clearance by LAMPS compared to in vivo” value was less than 5 fold. In addition, the estimated clearance in data set [2] ("wild type" individuals) is 2.12 L/h. Also, in data set [2] (CYP2C8*3 carrier), the estimated clearance is 3.21 L/h. Moreover, the oral clearance in data set [2] (human, ref Eckland and Danhof 2000) was 0.633 mL/min/kg and 0.882 mL/min/kg and 0.797 mL/min/kg. Further, the absorption in [2] (ref Eckland and Danhof 2000) is 83%. In data set [2] (repeat dose, ref Budde et al. 2003), the “daily AUC” value is listed as 14,565 ug-hr/l. In [2] (single dose of 45 mg, ref Budde et al. 2003), the area under the curve (AUC) is recorded as 17,387 ug-hr/l. In [3] (ref Eckland and Danhof 2000), the plasma free fraction is on record as less than 0.03. In data set [3], the “plasma free fraction, previously reported measurement” value is given as 0.0441 and the “Fub, plasma” value was 0.008-0.04. For the same compound, the “mean oral clearance of available literature values” in data set [4] (human, oral) was determined as 3.02 L/h. In data set [4] (human, oral, mean of all available values, adjusted for incomplete absorption), the “mean oral clearance adjusted for absorption” value turned out to be 2.51 L/h. The “oral clearance converted using 70 kg body weight” value in data set [4] (human, from ref Eckland and Danhof 2000) is 2.66 L/h and 3.7 L/h and 3.35 L/h. Also, in [5], the Hepatocyte metabolism entry was “CYP2C8, CYP3A4, and conjugation with sulfate or glucuronic acid”.
On to `CC(=O)Nc1ccc(O)cc1` [acetaminophen], for which the “half-life in the microphysiological system as compared to in vivo” value in [8] was 6 fold.
With `Cc1ccc(C(=O)c2cc(O)c(O)c([N+](=O)[O-])c2)cc1` [Tolcapone], in [2] (ref Jorga et al. 1998), the i.v. clearance was 7.1 L/h and the oral clearance was 11.43 L/h. Moreover, the “clearance in primary cells versus iPSC-derived hepatocytes” value in data set [9] is on record as “the opposite was true”. In data set [6], the “toxicity indicated by lactate dehydrogenase (LDH) and TNF-alpha release” value is listed as “most toxic”. In addition, the unbound fraction in data set [3] (no source cited, ref Jorga et al. 1998) is less than 0.001. The bound in [3] (ref Jorga et al. 1998) is more than 99.9%. In addition, in data set [3], the “plasma free fraction, previously reported measurement” value was 0.002 and the “Fub, plasma” value is recorded as <0.001-0.029. For the same compound, in data set [4] (11.43*0.68, from ref Jorga et al. 1998), the “CL/F adjusted for oral absorption” value stood at 7.8 L/h. Further, the bioavailability in data set [4] (human, oral) was determined as 62%. The Hepatocyte metabolism entry in [5] is on record as “Conjugation with glucuronic acid”.
